This note sets out measurements from US20150011466A1, “APJ Receptor Compounds” (priority 2012, published 2015).

SMILES strings stand for the structures. Like-named read-outs stand apart in the source and are kept apart here. Where a SMILES comes first, the peptide text is derived from it. [ ]: non-standard residue; d: D form. The star is where a group is joined. Palmitoyl = CCCCCCCCCCCCCCCC(=O)*; Aib = CC(C)(N)C(=O)O

One series has as its target T1, APJ receptor (Homo sapiens, UniProt P35414).
T1 construct: expressed in transfected cells; host or cells: Human TRex cells (doxycycline-inducible)
T1 sequence (P35414 1-380): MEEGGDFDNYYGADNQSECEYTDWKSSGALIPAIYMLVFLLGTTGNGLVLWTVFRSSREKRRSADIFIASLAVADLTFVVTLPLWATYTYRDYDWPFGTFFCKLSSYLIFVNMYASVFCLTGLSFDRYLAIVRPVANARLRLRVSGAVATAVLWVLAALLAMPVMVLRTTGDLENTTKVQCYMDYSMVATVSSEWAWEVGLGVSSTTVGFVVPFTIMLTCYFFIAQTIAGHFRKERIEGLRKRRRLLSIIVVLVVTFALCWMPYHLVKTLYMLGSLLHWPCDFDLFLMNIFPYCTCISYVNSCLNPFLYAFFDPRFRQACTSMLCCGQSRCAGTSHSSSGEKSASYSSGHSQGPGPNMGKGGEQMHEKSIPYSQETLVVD
The series can be described thus: HTRF cAMP assay, inhibition of NKH477 stimulated cAMP in Human TRex cells expressing APJ upon doxycycline induction (APJ-hTREX). It is filed as cell-based. The settings on record: for Ranking: class combining EC50 and % histamine; for percent intrinsic activity at 0.3 µM: read-out: % IA (@ 300 nM). In short, it runs like this: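 Cells stimulated with NKH477 and cAMP measured by HTRF competitive immunoassay (cryptate anti-cAMP antibody, d2-labeled cAMP). APJ-hTREX cells induced with […] doxycycline and seeded overnight at 40 k/well.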

As to `CCCCCCCCCCCCCCCC(=O)N[C@H](C(=O)N[C@H](C(=O)N[C@@H](Cc1ccccc1)C(=O)N[C@@H](CCCNC(=N)N)C(=O)NCC(=O)N[C@@H](CO)C(=O)N[C@@H](CCC(=O)O)C(=O)N[C@H](CCCCN)C(=O)N[C@@H](CCCNC(=N)N)C(=O)N[C@@H](CCCNC(=N)N)C(=O)N[C@@H](CO)C(=O)N[C@@H](C)C(=O)N[C@@H](CC(=O)O)C(=O)N[C@H](C(=O)N[C@@H](Cc1ccccc1)C(=O)N[C@H](C(N)=O)[C@@H](C)CC)[C@@H](C)CC)C(C)C)[C@@H](C)O` [Compound 72] (Palmitoyl-TVFRGSE[dK]RRSADIFI-NH2; C-terminus assumed), in “Histimine (% vs. 48/40)”, the “Histimine (% vs. 48/40)” value was 44%. For the same molecule, at APJ receptor, a half-maximal effect (EC50) was put at 134 nM; the Ranking entry is “** (EC50 101-500 nM and % histamine>35%)”; the percent intrinsic activity at 0.3 µM was 75%.
For `CCCCCCCCCCCCCCCC(=O)N[C@H](C(=O)N[C@H](C(=O)N[C@@H](Cc1ccccc1)C(=O)N[C@@H](CCCNC(=N)N)C(=O)N[C@@H](CO)C(=O)N[C@@H](CO)C(=O)N[C@@H](CCC(=O)O)C(=O)N[C@H](CCCCN)C(=O)N[C@@H](CCCNC(=N)N)C(=O)N[C@@H](CCCNC(=N)N)C(=O)N[C@@H](CO)C(=O)N[C@@H](C)C(=O)NCC(=O)N[C@H](C(=O)N[C@@H](Cc1ccccc1)C(=O)N[C@H](C(N)=O)[C@@H](C)CC)[C@@H](C)CC)C(C)C)[C@@H](C)O` [Compound 78] (Palmitoyl-TVFRSSE[dK]RRSAGIFI-NH2), the “Histimine (% vs. 48/40)” value in the series “Histimine (% vs. 48/40)” is recorded as 62%. Moreover, on APJ receptor, the percent intrinsic activity at 0.3 µM came to 60%.
Turning to `CCCCCCCCCCCCCCCC(=O)N[C@H](C(=O)NC(C)(C)C(=O)N[C@@H](Cc1ccccc1)C(=O)N[C@@H](CCCNC(=N)N)C(=O)N[C@@H](CO)C(=O)N[C@@H](CO)C(=O)N[C@@H](CCC(=O)O)C(=O)N[C@H](CCCCN)C(=O)N[C@@H](CCCNC(=N)N)C(=O)N[C@@H](CCCNC(=N)N)C(=O)N[C@@H](CO)C(=O)N[C@@H](C)C(=O)N[C@@H](CC(=O)O)C(=O)N[C@H](C(=O)N[C@@H](Cc1ccccc1)C(=O)N[C@H](C(N)=O)[C@@H](C)CC)[C@@H](C)CC)[C@@H](C)O` [Compound 57] (Palmitoyl-T[Aib]FRSSE[dK]RRSADIFI-NH2; C-terminus assumed), the “Histimine (% vs. 48/40)” value in “Histimine (% vs. 48/40)” came out at 39%. On APJ receptor, the EC50 came out at 68 nM; the Ranking entry was “*** (EC50<100 nM and % histamine>35%)”; the percent intrinsic activity at 0.3 µM was found to be 77%.
In the case of `CCCCCCCCCCCCCCCC(=O)N[C@H](C(=O)N[C@H](C(=O)N[C@@H](Cc1ccccc1)C(=O)N[C@@H](CCCNC(=N)N)C(=O)N[C@@H](CO)C(=O)N[C@@H](CO)C(=O)N[C@@H](CCC(=O)O)C(=O)N[C@H](CCCCN)C(=O)N[C@@H](CCCNC(=N)N)C(=O)N[C@@H](CCCNC(=N)N)C(=O)N[C@@H](CO)C(=O)N[C@@H](C)C(=O)N[C@@H](CC(=O)O)C(=O)N[C@H](C(=O)N[C@@H](Cc1ccccc1)C(=O)N[C@@H](CCC(N)=O)C(N)=O)[C@@H](C)CC)C(C)C)[C@@H](C)O` [Compound 32] (Palmitoyl-TVFRSSE[dK]RRSADIFQ-NH2), the “Histimine (% vs. 48/40)” value in “Histimine (% vs. 48/40)” is 69%. Moreover, the percent intrinsic activity at 0.3 µM on APJ receptor was 55%.
Consider `CCCCCCCCCCCCCCCC(=O)N[C@H](C(=O)N[C@H](C(=O)N[C@@H](Cc1ccccc1)C(=O)N[C@@H](CCCNC(=N)N)C(=O)N[C@@H](CO)C(=O)N[C@@H](CO)C(=O)N[C@@H](CCC(=O)O)C(=O)N[C@H](CCCCN)C(=O)N[C@@H](CCC(N)=O)C(=O)N[C@@H](CCCNC(=N)N)C(=O)N[C@@H](CO)C(=O)N[C@@H](C)C(=O)N[C@@H](CC(=O)O)C(=O)N[C@H](C(=O)N[C@@H](Cc1ccccc1)C(=O)N[C@H](C(N)=O)[C@@H](C)CC)[C@@H](C)CC)C(C)C)[C@@H](C)O` [Compound 26] (Palmitoyl-TVFRSSE[dK]QRSADIFI-NH2; C-terminus assumed), for which the “Histimine (% vs. 48/40)” value in the series “Histimine (% vs. 48/40)” is −1%. Also, on APJ receptor, a half-maximal effect (EC50) was put at 112 nM; the Ranking result was “**** (EC50 101-500 nM and % histamine<35%)”; the percent intrinsic activity at 0.3 µM is 6%.
`CCCCCCCCCCCCCCCC(=O)N[C@H](C(=O)N[C@H](C(=O)N[C@@H](Cc1ccccc1)C(=O)N[C@@H](CCCNC(=N)N)C(=O)N[C@@H](CO)C(=O)N[C@@H](CO)C(=O)N[C@@H](CCC(=O)O)C(=O)N[C@H](CCCCN)C(=O)N[C@@H](CCCNC(=N)N)C(=O)N[C@@H](CCCNC(=N)N)C(=O)N[C@@H](CO)C(=O)N[C@@H](C)C(=O)N[C@@H](CC(=O)O)C(=O)N[C@H](C(=O)N1CCC[C@H]1C(=O)N[C@H](C(N)=O)[C@@H](C)CC)[C@@H](C)CC)C(C)C)[C@@H](C)O` [Compound 55] (Palmitoyl-TVFRSSE[dK]RRSADIPI-NH2): the “Histimine (% vs. 48/40)” value in “Histimine (% vs. 48/40)” is reported as 33%. Besides, the percent intrinsic activity at 0.3 µM on APJ receptor came out at 43%.
In the same order, the values of `CCCCCCCCCCCCCCCC(=O)N[C@H](C(=O)N[C@H](C(=O)N[C@@H](Cc1ccccc1)C(=O)N[C@@H](CCCNC(=N)N)C(=O)N[C@@H](CO)C(=O)N[C@@H](CO)C(=O)N[C@@H](CCC(=O)O)C(=O)N[C@H](CCCCN)C(=O)N[C@@H](CCCNC(=N)N)C(=O)N[C@@H](CCCNC(=N)N)C(=O)N[C@@H](CO)C(=O)N[C@@H](C)C(=O)N[C@@H](Cc1ccccc1)C(=O)N[C@H](C(=O)N[C@@H](Cc1ccccc1)C(=O)N[C@H](C(N)=O)[C@@H](C)CC)[C@@H](C)CC)C(C)C)[C@@H](C)O` [Compound 4] (Palmitoyl-TVFRSSE[dK]RRSAFIFI-NH2) are 118% and 65%.
With `CCCCCCCCCCCCCCCC(=O)N[C@H](C(=O)N[C@H](C(=O)N[C@@H](Cc1ccccc1)C(=O)N[C@@H](CCCNC(=N)N)C(=O)N[C@@H](CO)C(=O)N[C@@H](CO)C(=O)N[C@@H](CCC(=O)O)C(=O)N1CCC[C@H]1C(=O)N[C@@H](CCCNC(=N)N)C(=O)N[C@@H](CCCNC(=N)N)C(=O)N[C@@H](CO)C(=O)N[C@@H](C)C(=O)N[C@@H](CC(=O)O)C(=O)N[C@H](C(=O)N[C@@H](Cc1ccccc1)C(=O)N[C@H](C(N)=O)[C@@H](C)CC)[C@@H](C)CC)C(C)C)[C@@H](C)O` [Compound 48] (Palmitoyl-TVFRSSEPRRSADIFI-NH2; C-terminus assumed), in “Histimine (% vs. 48/40)”, the “Histimine (% vs. 48/40)” value is 5%. For the same molecule, at APJ receptor, the Ranking result is “* (EC50>500 nM and % histamine>35%)”; the percent intrinsic activity at 0.3 µM worked out at 78%. Further, the half-maximal effective concentration (EC50) at APJ receptor (inhibition of NKH477 stimulated cAMP, APJ-hTREX cells, read-out: APJ-hTREX EC50) amounted to 3350 nM.
For the molecule `CCCCCCCCCCCCCCCC(=O)N[C@H](C(=O)N[C@H](C(=O)N[C@@H](Cc1ccccc1)C(=O)NCC(=O)N[C@@H](CO)C(=O)N[C@@H](CO)C(=O)N[C@@H](CCC(=O)O)C(=O)N[C@H](CCCCN)C(=O)N[C@@H](CCCNC(=N)N)C(=O)N[C@@H](CCCNC(=N)N)C(=O)N[C@@H](CO)C(=O)N[C@@H](C)C(=O)N[C@@H](CC(=O)O)C(=O)N[C@H](C(=O)N[C@@H](Cc1ccccc1)C(=O)N[C@H](C(N)=O)[C@@H](C)CC)[C@@H](C)CC)C(C)C)[C@@H](C)O` [Compound 71] (Palmitoyl-TVFGSSE[dK]RRSADIFI-NH2; C-terminus assumed), the “Histimine (% vs. 48/40)” value in “Histimine (% vs. 48/40)” is given as 6%. Also, at APJ receptor, the EC50 was found to be 111 nM; the Ranking entry is “**** (EC50 101-500 nM and % histamine<35%)”; the percent intrinsic activity at 0.3 µM was determined as 65%.
Turning to `CCCCCCCCCCCCCCCC(=O)N[C@H](C(=O)N[C@H](C(=O)N[C@@H](Cc1ccccc1)C(=O)N[C@@H](CCCNC(=N)N)C(=O)N[C@@H](CO)C(=O)N[C@@H](CO)C(=O)N[C@@H](CCC(=O)O)C(=O)N[C@H](CCCCN)C(=O)N[C@@H](CCCNC(=N)N)C(=O)NCC(=O)N[C@@H](CO)C(=O)N[C@@H](C)C(=O)N[C@@H](CC(=O)O)C(=O)N[C@H](C(=O)N[C@@H](Cc1ccccc1)C(=O)N[C@H](C(N)=O)[C@@H](C)CC)[C@@H](C)CC)C(C)C)[C@@H](C)O` [Compound 76] (Palmitoyl-TVFRSSE[dK]RGSADIFI-NH2), the “Histimine (% vs. 48/40)” value in the series “Histimine (% vs. 48/40)” was 25%. In addition, the percent intrinsic activity at 0.3 µM at APJ receptor stood at 46%.
The matching figures for `CCCCCCCCCCCCCCCC(=O)N[C@H](C(=O)N[C@H](C(=O)N[C@@H](Cc1ccccc1)C(=O)N[C@@H](CCCNC(=N)N)C(=O)N[C@@H](CO)C(=O)N[C@@H](CO)C(=O)N[C@@H](CCC(=O)O)C(=O)N[C@H](CCCCN)C(=O)N[C@@H](CCCNC(=N)N)C(=O)N[C@@H](CCCNC(=N)N)C(=O)N[C@@H](CO)C(=O)N[C@@H](C)C(=O)N[C@@H](Cc1c[nH]cn1)C(=O)N[C@H](C(=O)N[C@@H](Cc1ccccc1)C(=O)N[C@H](C(N)=O)[C@@H](C)CC)[C@@H](C)CC)C(C)C)[C@@H](C)O` [Compound 16] (Palmitoyl-TVFRSSE[dK]RRSAHIFI-NH2): 107% and 63%.
With `CCCCCCCCCCCCCCCC(=O)N[C@H](C(=O)N[C@H](C(=O)N[C@@H](Cc1ccccc1)C(=O)N[C@@H](CCCNC(=N)N)C(=O)N[C@@H](CO)C(=O)N[C@@H](CO)C(=O)N[C@@H](CCC(=O)O)C(=O)N[C@H](CCCCN)C(=O)N[C@@H](CCCNC(=N)N)C(=O)N[C@@H](CCCNC(=N)N)C(=O)N[C@@H](CO)C(=O)N[C@@H](C)C(=O)N1CCC[C@H]1C(=O)N[C@H](C(=O)N[C@@H](Cc1ccccc1)C(=O)N[C@H](C(N)=O)[C@@H](C)CC)[C@@H](C)CC)C(C)C)[C@@H](C)O` [Compound 53] (Palmitoyl-TVFRSSE[dK]RRSAPIFI-NH2), in “Histimine (% vs. 48/40)”, the “Histimine (% vs. 48/40)” value was 115%. The percent intrinsic activity at 0.3 µM at APJ receptor was 75%.

Usually EC50 stands for the concentration needed to bring the measured effect to its halfway point.
